The text below walks through data of ChEMBL document CHEMBL1152487, “3D-QSAR studies of HDACs inhibitors using pharmacophore-based alignment” (Eur J Med Chem, 2009).

As a reminder, the IC50 is the concentration that gives 50% inhibition. A high value points to weaker potency. The term pIC50 denotes −log10 of the IC50, conventionally taken in molar units. A lower pIC50 goes with a high IC50.

The assay in a line: Inhibition of HDAC.
The compound `O=C(CCCCCN1C(=O)c2ccccc2C1=O)NO` came in with an IC50 of 103 nM and a pIC50 of 6.99.

Compound `Cc1ccc(S(=O)(=O)Nc2ccc(/C=C/C(=O)NO)cc2)cc1` yielded an IC50 of 300 nM and a pIC50 of 6.52.

`O=C(Cc1ccc(NS(=O)(=O)c2ccccc2)cc1)NO` showed a half-maximal inhibitory concentration (IC50) of 1000 nM and a pIC50 of 6.

`O=C(CCCCC/C=C/c1ccc2ccccc2c1)NO` came in with a pIC50 of 8.22.

With `CC(=O)c1cc(/C=C/C(=O)NO)n(C)c1`, inhibition was half-maximal at 11200 nM (IC50) and the pIC50 is 4.95.

Compound `Cn1cc(C=O)cc1CCC(=O)NO` displayed a half-inhibitory concentration (IC50) of 52600 nM and a pIC50 of 4.28.

For the compound `Cn1cc(C(=O)Cl)cc1/C=C/C(=O)NO`, inhibition was half-maximal at 9650 nM (IC50) and the pIC50 is 5.01.

As for `Cn1cc(C=O)cc1/C=C/C(=O)NO`, half-maximal inhibition (IC50) was put at 12200 nM and the pIC50 was 4.92.

The compound `O=C(CCCCCCC(=O)c1ccc(C(F)(F)F)cc1)NO` gave a pIC50 of 7.35.

The compound `COc1ccc(S(=O)(=O)Nc2ccc(/C=C/C(=O)NO)cc2)cc1` gave an IC50 of 60 nM and a pIC50 of 7.22.

In turn, `O=C(CCCCCCCc1ccc2ccccc2c1)NO` displayed a pIC50 of 7.6.

Take `O=C(/C=C/c1ccc(NS(=O)(=O)c2ccc(Cl)cc2Cl)cc1)NO`: half-maximal inhibition (IC50) required 300 nM and the pIC50 turned out to be 6.52.

With `O=C(/C=C/c1ccc(NS(=O)(=O)c2ccc(Cl)c(Cl)c2)cc1)NO`, half-maximal inhibition (IC50) required 100 nM and the negative logarithm of the IC50 (pIC50) is on record as 7.

Consider `O=C(CCc1ccc(NS(=O)(=O)c2ccccc2)cc1)NO`, for which the IC50 came to 100 nM and the pIC50 amounted to 7.

`O=C(CCCCCCC(=O)c1cccnc1)NO` yielded a pIC50 of 6.82.

`O=C(CCCCCCC(=O)c1ccc(N2CCN(c3ccccc3)CC2)cc1)NO`: the negative logarithm of the IC50 (pIC50) was 8.35.
